Source: the kinase profiling compilation of Christmann-Franck et al. (2016)

Columns and labels:
Assay in all cases: KINOMEscan competition binding
Details in all cases: compound 10.0 µM
NEK6 (human) = NEK6 (human) (UniProt Q9HC98)
GSK3B (human) = GSK3B (human) (UniProt P49841)
CDK7 (human) = CDK7 (human) (UniProt P50613)
HUNK (human) = HUNK (human) (UniProt P57058)
SBK1 (human) = SBK1 (human) (UniProt Q52WX2)
INSRR (human) = INSRR (human) (UniProt P14616)
PAK6 (human) = PAK6 (human) (UniProt Q9NQU5)
Sequence of PAK6 (human) (Q9NQU5 whole entry, looked up): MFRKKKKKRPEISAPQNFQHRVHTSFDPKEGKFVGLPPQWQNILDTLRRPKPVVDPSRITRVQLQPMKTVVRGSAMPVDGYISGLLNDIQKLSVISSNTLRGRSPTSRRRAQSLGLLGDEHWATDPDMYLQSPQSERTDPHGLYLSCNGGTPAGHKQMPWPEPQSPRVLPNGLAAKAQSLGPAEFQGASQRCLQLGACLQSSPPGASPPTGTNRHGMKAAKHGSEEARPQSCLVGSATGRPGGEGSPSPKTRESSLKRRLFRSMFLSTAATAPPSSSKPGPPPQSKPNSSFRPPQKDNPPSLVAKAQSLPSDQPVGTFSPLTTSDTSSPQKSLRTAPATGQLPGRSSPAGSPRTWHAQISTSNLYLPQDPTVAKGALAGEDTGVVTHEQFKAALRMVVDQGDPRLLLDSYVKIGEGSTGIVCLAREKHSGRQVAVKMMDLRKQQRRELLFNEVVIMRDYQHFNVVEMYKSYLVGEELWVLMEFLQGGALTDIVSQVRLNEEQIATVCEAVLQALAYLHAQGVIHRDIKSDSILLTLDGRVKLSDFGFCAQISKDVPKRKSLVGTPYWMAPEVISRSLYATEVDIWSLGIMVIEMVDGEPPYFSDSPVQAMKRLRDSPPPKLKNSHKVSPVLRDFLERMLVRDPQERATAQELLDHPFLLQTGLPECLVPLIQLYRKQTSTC

DCLK3 (human) = DCLK3 (human) (UniProt Q9C098)
Sequence of DCLK3 (human) (Q9C098 whole entry, looked up): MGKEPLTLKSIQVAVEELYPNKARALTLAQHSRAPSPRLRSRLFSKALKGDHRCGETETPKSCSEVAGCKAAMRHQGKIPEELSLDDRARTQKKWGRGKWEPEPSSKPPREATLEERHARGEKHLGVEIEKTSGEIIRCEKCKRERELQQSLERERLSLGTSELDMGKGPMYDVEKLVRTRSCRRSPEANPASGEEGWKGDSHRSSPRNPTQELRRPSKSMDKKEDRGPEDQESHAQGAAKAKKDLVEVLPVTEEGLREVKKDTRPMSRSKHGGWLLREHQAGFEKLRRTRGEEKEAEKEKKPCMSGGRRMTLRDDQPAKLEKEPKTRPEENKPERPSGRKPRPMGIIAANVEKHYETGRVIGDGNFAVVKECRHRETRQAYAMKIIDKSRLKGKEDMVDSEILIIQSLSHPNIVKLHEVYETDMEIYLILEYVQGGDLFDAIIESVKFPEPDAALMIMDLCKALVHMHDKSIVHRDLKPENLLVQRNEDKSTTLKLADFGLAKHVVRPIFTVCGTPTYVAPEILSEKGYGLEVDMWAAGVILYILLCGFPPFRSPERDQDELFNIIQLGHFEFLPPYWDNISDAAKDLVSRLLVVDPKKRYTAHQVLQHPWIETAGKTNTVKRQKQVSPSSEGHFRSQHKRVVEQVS

PRKD1 (human) = PRKD1 (human) (UniProt Q15139)
Sequence of PRKD1 (human) (Q15139 whole entry, looked up): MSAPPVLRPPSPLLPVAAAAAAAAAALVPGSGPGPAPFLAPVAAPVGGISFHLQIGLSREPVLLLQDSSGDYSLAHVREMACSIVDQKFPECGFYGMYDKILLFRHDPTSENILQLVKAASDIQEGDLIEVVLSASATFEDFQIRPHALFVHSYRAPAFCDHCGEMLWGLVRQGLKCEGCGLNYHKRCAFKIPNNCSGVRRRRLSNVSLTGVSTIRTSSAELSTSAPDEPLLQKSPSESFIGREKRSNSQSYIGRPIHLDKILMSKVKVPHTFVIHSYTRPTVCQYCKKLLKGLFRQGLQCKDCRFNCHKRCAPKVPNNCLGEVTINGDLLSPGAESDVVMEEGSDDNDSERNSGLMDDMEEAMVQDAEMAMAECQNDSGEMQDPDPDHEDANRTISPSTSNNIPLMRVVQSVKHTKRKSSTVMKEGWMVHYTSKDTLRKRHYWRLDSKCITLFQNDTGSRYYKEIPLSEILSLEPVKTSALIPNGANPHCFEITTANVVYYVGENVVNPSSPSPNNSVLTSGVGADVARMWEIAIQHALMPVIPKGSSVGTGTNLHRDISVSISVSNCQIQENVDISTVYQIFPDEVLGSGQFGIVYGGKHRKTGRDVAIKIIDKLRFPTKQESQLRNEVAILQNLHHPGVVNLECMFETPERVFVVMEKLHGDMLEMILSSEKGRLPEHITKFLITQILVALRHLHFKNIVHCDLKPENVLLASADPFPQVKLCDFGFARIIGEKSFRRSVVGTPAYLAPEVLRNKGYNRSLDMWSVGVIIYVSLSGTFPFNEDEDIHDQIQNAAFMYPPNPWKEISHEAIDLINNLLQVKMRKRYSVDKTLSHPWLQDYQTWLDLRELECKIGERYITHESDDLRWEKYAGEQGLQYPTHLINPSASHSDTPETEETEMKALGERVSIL

EPHA8 (human) = EPHA8 (human) (UniProt P29322)
CDK14 (human) = CDK14 (human) (UniProt O94921)
PI4KB (human) = PI4KB (human) (UniProt Q9UBF8)
ABL2 (human) = ABL2 (human) (UniProt P42684)
IGF1R (human) = IGF1R (human) (UniProt P08069)
CaMK1 (human) = CaMK1 (human) (UniProt Q14012)
Sequence of CaMK1 (human) (Q14012 whole entry, looked up): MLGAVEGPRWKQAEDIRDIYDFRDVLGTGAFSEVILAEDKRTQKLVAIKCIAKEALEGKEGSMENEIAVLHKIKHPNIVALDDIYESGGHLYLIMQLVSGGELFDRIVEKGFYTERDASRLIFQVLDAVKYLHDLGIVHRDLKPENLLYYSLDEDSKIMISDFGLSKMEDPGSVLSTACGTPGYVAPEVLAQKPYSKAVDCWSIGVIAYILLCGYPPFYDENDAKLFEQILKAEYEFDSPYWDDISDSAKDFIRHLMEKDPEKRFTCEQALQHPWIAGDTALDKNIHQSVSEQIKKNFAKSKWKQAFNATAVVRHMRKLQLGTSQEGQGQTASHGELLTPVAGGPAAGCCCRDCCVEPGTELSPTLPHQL

HIPK3 (human) = HIPK3 (human) (UniProt Q9H422)
GAK (human) = GAK (human) (UniProt O14976)
ACVR2B (human) = ACVR2B (human) (UniProt Q13705)
MAP2K1 (human) = MAP2K1 (human) (UniProt Q02750)
Sequence of MAP2K1 (human) (Q02750 whole entry, looked up): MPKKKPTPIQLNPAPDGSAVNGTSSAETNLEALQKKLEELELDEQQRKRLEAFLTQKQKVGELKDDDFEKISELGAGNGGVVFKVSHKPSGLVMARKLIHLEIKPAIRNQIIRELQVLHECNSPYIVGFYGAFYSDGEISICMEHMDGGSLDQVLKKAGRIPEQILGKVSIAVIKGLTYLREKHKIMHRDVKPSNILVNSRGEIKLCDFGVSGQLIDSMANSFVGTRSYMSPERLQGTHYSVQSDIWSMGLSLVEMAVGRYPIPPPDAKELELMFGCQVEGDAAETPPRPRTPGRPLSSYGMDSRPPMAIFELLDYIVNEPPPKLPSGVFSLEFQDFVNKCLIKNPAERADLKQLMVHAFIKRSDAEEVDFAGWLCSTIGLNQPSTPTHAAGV

MAP2K6 (human) = MAP2K6 (human) (UniProt P52564)
Sequence of MAP2K6 (human) (P52564 whole entry, looked up): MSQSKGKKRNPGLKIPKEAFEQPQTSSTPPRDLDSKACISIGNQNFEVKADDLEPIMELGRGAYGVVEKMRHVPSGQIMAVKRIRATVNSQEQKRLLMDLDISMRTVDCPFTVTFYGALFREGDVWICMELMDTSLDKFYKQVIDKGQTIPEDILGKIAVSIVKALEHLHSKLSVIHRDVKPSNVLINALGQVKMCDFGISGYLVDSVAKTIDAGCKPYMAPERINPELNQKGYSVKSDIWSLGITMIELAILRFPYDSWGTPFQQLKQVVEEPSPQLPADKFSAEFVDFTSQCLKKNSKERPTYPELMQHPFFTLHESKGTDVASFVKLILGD

PAK2 (human) = PAK2 (human) (UniProt Q13177)
EPHB1 (human) = EPHB1 (human) (UniProt P54762)
STK17B (human) = STK17B (human) (UniProt O94768)
RPS6KB1 (human) = RPS6KB1 (human) (UniProt P23443)
Sequence of RPS6KB1 (human) (P23443 whole entry, looked up): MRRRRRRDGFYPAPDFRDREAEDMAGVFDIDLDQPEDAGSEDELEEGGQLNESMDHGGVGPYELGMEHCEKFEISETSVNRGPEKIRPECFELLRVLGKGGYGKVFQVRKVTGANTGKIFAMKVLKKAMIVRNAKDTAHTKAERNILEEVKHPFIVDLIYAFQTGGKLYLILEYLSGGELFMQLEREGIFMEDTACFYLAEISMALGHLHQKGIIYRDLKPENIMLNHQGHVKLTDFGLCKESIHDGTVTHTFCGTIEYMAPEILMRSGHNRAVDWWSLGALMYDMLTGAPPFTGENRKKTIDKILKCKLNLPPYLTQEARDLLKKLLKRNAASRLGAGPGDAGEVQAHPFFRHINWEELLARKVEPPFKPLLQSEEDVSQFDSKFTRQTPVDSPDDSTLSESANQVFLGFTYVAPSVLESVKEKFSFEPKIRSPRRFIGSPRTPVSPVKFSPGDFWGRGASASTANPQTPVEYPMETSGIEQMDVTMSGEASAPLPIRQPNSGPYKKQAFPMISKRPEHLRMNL

TLK1 (human) = TLK1 (human) (UniProt Q9UKI8)
DYRK2 (human) = DYRK2 (human) (UniProt Q92630)
CDKL3 (human) = CDKL3 (human) (UniProt Q8IVW4)
Sequence of CDKL3 (human) (Q8IVW4 whole entry, looked up): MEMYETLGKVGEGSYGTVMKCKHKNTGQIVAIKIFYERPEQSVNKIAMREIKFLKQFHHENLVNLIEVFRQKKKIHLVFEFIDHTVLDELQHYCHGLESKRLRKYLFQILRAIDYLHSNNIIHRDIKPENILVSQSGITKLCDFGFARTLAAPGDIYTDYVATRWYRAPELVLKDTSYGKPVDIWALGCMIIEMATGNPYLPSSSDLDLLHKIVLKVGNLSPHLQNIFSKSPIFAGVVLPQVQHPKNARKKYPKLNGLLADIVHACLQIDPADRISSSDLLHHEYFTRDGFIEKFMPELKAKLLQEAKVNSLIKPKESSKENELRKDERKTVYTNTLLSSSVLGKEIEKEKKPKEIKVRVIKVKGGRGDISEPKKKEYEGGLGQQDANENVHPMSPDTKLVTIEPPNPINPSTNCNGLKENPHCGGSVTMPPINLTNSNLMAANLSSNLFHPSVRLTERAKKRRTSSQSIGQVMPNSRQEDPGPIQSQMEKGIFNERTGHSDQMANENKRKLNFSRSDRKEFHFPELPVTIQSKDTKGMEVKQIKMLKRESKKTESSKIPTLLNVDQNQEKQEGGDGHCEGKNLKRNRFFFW

TEK (human) = TEK (human) (UniProt Q02763)
MTOR (human) = MTOR (human) (UniProt P42345)
AXL (human) = AXL (human) (UniProt P30530)
ERBB4 (human) = ERBB4 (human) (UniProt Q15303)
STK35 (human) = STK35 (human) (UniProt Q8TDR2)
SYK (human) = SYK (human) (UniProt P43405)
TESK1 (human) = TESK1 (human) (UniProt Q15569)
MAP3K3 (human) = MAP3K3 (human) (UniProt Q99759)
RPS6KA1 KD1 (human) = RPS6KA1 KD1 (human) (UniProt Q15418)
ERBB2 (human) = ERBB2 (human) (UniProt P04626)
[1] = tested on: RET (human), P07949 [V804M]
CLK3 (human) = CLK3 (human) (UniProt P49761)

Sequence of CDK7 (human) (P50613 whole entry, looked up): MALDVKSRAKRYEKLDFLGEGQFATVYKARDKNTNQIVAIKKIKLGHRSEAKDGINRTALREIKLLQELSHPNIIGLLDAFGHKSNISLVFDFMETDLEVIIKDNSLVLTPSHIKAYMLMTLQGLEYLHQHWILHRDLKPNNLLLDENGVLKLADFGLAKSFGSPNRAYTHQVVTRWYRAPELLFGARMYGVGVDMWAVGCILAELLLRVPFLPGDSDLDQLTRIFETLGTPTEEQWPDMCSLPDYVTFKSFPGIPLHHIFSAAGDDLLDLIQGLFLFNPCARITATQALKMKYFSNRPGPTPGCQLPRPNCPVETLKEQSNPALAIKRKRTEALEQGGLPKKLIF

| SMILES | kinase still bound, per cent of control (NEK6 (human)) [%] | kinase still bound, per cent of control (GSK3B (human)) [%] | kinase still bound, per cent of control (CDK7 (human)) [%] | kinase still bound, per cent of control (HUNK (human)) [%] | kinase still bound, per cent of control (SBK1 (human)) [%] | kinase still bound, per cent of control (INSRR (human)) [%] | kinase still bound, per cent of control (PAK6 (human)) [%] | kinase still bound, per cent of control (DCLK3 (human)) [%] | kinase still bound, per cent of control (PRKD1 (human)) [%] | kinase still bound, per cent of control (EPHA8 (human)) [%] | kinase still bound, per cent of control (CDK14 (human)) [%] | kinase still bound, per cent of control (ABL2 (human)) [%] | kinase still bound, per cent of control (IGF1R (human)) [%] | kinase still bound, per cent of control (CaMK1 (human)) [%] | kinase still bound, per cent of control (HIPK3 (human)) [%] | kinase still bound, per cent of control (GAK (human)) [%] | kinase still bound, per cent of control (ACVR2B (human)) [%] | kinase still bound, per cent of control (MAP2K1 (human)) [%] | kinase still bound, per cent of control (MAP2K6 (human)) [%] | kinase still bound, per cent of control (PAK2 (human)) [%] | also measured |
| --- | --- | --- | --- | --- | --- | --- | --- | --- | --- | --- | --- | --- | --- | --- | --- | --- | --- | --- | --- | --- | --- |
| C[C@@H](Oc1cc(-c2cnn(C3CCNCC3)c2)cnc1N)c1c(Cl)ccc(F)c1Cl | 27 | 100 | 1.2 | 74 | 6 | 0.25 | 72 | 42 | 2.4 | 0.2 | 92 | 0.85 | 0.9 | 37 | 92 | 79 | 38 | 64 | 54 | 96 | kinase still bound, per cent of control (PI4KB (human)): 100%; kinase still bound, per cent of control (EPHB1 (human)): 0.15%; kinase still bound, per cent of control (STK17B (human)): 100%; kinase still bound, per cent of control (RPS6KB1 (human)): 1.8%; kinase still bound, per cent of control (TLK1 (human)): 61%; kinase still bound, per cent of control (DYRK2 (human)): 9.6%; kinase still bound, per cent of control (CDKL3 (human)): 68%; kinase still bound, per cent of control (TEK (human)): 1%; kinase still bound, per cent of control (MTOR (human)): 100%; kinase still bound, per cent of control (AXL (human)): 5.3% |
| CNC(=O)c1cc(Oc2ccc(NC(=O)Nc3ccc(Cl)c(C(F)(F)F)c3)cc2)ccn1 | 100 | 100 | 4.2 | 70 | 89 | 97 | 91 | 75 | 32 | 3.9 | 8.6 | 35 | 100 | 82 | 0.6 | 80 | 75 | 100 | 76 | 73 | kinase still bound, per cent of control (ERBB4 (human)): 100%; kinase still bound, per cent of control (STK35 (human)): 34%; kinase still bound, per cent of control (SYK (human)): 88%; kinase still bound, per cent of control (TESK1 (human)): 62%; kinase still bound, per cent of control (MAP3K3 (human)): 86%; kinase still bound, per cent of control (EPHB1 (human)): 30%; kinase still bound, per cent of control (STK17B (human)): 59%; kinase still bound, per cent of control (RPS6KB1 (human)): 63%; kinase still bound, per cent of control (TLK1 (human)): 100%; kinase still bound, per cent of control (DYRK2 (human)): 95%; kinase still bound, per cent of control (RPS6KA1 KD1 (human)): 82%; kinase still bound, per cent of control (CDKL3 (human)): 0.6%; kinase still bound, per cent of control (ERBB2 (human)): 100%; kinase still bound, per cent of control [1]: 0%; kinase still bound, per cent of control (MTOR (human)): 80%; kinase still bound, per cent of control (AXL (human)): 7.8%; kinase still bound, per cent of control (CLK3 (human)): 91% |
